Assays:
[1] = Clearance in Sprague-Dawley rat plasma at 5 mg/kg, iv after 0.083 to 24 hrs by LC-MS analysis; type: ADME, organism-based; details: time 0.083-24 hrs
[2] = Acute toxicity in BALB/c mouse assessed as pathological damage in lung at 100 mg/kg, ig administered as single dose measured after 14 days by hematoxylin and eosin staining method; type: organism-based; details: in vivo, po, 336 h, time 14 day
[3] = Acute toxicity in BALB/c mouse assessed as pathological damage in heart at 100 mg/kg, ig administered as single dose measured after 14 days by hematoxylin and eosin staining method; type: organism-based; details: in vivo, po, 336 h, time 14 day
[4] = Toxicity in BALB/c nude mouse xenografted with human HCT-116 cells assessed as body weight loss at 10 mg/kg, po administered twice a week for 19 days and measured every other day; type: organism-based; details: in vivo, 456 h, time 19 day
in vivo [5] = details: Sprague-Dawley, rat, plasma, po, 15 mg/kg
[6] = Cmax in Sprague-Dawley rat plasma at 15 mg/kg, po after 0.25 to 24 hrs by LC-MS analysis; type: ADME, organism-based; set-up: time lower 0.25 hrs, dose 15 mg/kg, time upper 24 hrs, route po
HCT-116 [7] = assay: Antitumor activity in human HCT-116 cells xenografted in BALB/c nude mouse assessed tumor growth inhibition at 5 mg/kg, po administered twice a week for 19 days and measured every other day; type: functional; details: HCT-116, 456 h, time 19 day, read-out: TGI
HCT-116 [8] = assay: Antitumor activity in human HCT-116 cells xenografted in BALB/c nude mouse assessed tumor growth inhibition at 20 mg/kg, po administered twice a week for 19 days and measured every measured every other day; type: functional; details: HCT-116, 456 h, time 19 day, read-out: TGI
HCT-116 [9] = assay: Antitumor activity in human HCT-116 cells xenografted in BALB/c nude mouse assessed tumor growth inhibition at 10 mg/kg, po administered twice a week for 19 days and measured every other day; type: functional; details: HCT-116, 456 h, time 19 day, read-out: TGI
[10] = Cmax in Sprague-Dawley rat plasma at 5 mg/kg, iv after 0.083 to 24 hrs by LC-MS analysis; type: ADME, organism-based; set-up: dose 5 mg/kg, time 0.083-24 hrs, route iv
[11] = Toxicity in BALB/c nude mouse xenografted with human HCT-116 cells assessed as body weight loss at 5 mg/kg, po administered twice a week for 19 days and measured every other day; type: organism-based; details: in vivo, 456 h, time 19 day
[12] = Terminal half life in Sprague-Dawley rat plasma at 15 mg/kg, po after 0.25 to 24 hrs by LC-MS analysis; type: ADME, organism-based; details: time 0.25-24 hrs, read-out: beta t1/2 (converted)
[13] = Acute toxicity in BALB/c mouse assessed as pathological damage in kidney at 100 mg/kg, ig administered as single dose measured after 14 days by hematoxylin and eosin staining method; type: organism-based; details: in vivo, po, 336 h, time 14 day
[14] = Toxicity in BALB/c nude mouse xenografted with human HCT-116 cells assessed as body weight loss at 40 mg/kg, po administered twice a week for 19 days and measured every other day; type: organism-based; details: in vivo, 456 h, time 19 day
[15] = Terminal half life in Sprague-Dawley rat plasma at 5 mg/kg, iv after 0.083 to 24 hrs by LC-MS analysis; type: ADME, organism-based; details: time 0.083-24 hrs, read-out: beta t1/2 (converted)
[16] = Acute toxicity in BALB/c mouse assessed as change in ALT level in blood at 100 mg/kg, ig administered as single dose measured after 14 days; type: organism-based; details: in vivo, po, 336 h, time 14 day
[17] = Acute toxicity in BALB/c mouse assessed as body weight loss at 100 mg/kg, ig administered as single dose measured every day for 14 days; type: organism-based; details: in vivo, po, 336 h, time 14 day
[18] = MRT (0 to 24 hrs) in Sprague-Dawley rat plasma at 5 mg/kg, iv after 0.083 to 24 hrs by LC-MS analysis; type: ADME, organism-based; details: time 0.083-24 hrs
in vivo [19] = details: Sprague-Dawley, rat, plasma, iv, 5 mg/kg
[20] = MRT (0 to 24 hrs) in Sprague-Dawley rat plasma at 15 mg/kg, po after 0.25 to 24 hrs by LC-MS analysis; type: ADME, organism-based; details: time 0.25-24 hrs
[21] = Acute toxicity in BALB/c mouse assessed as pathological damage in liver at 100 mg/kg, ig administered as single dose measured after 14 days by hematoxylin and eosin staining method; type: organism-based; details: in vivo, po, 336 h, time 14 day
[22] = Acute toxicity in BALB/c mouse assessed as pathological damage in spleen at 100 mg/kg, ig administered as single dose measured after 14 days by hematoxylin and eosin staining method; type: organism-based; details: in vivo, po, 336 h, time 14 day
[23] = Acute toxicity in BALB/c mouse assessed as change in UREA in blood at 100 mg/kg, ig administered as single dose measured after 14 days; type: organism-based; details: in vivo, po, 336 h, time 14 day
[24] = Acute toxicity in BALB/c mouse assessed as adverse effect at 100 mg/kg, ig administered as single dose measured every day for 14 days; type: organism-based; details: in vivo, po, 336 h, time 14 day
[25] = Acute toxicity in BALB/c mouse assessed as change in CREA level in blood at 100 mg/kg, ig administered as single dose measured after 14 days; type: organism-based; details: in vivo, po, 336 h, time 14 day
[26] = Oral bioavailability in Sprague-Dawley rat plasma at 15 mg/kg after 0.25 to 24 hrs by LC-MS analysis; type: ADME, organism-based; details: time 0.25-24 hrs
[27] = Acute toxicity in BALB/c mouse assessed as change in AST level in blood at 100 mg/kg, ig administered as single dose measured after 14 days; type: organism-based; details: in vivo, po, 336 h, time 14 day
[28] = Acute toxicity in BALB/c mouse assessed as change in CKMB level in blood at 100 mg/kg, ig administered as single dose measured after 14 days; type: organism-based; details: in vivo, po, 336 h, time 14 day
[29] = Tmax in Sprague-Dawley rat plasma at 15 mg/kg, po after 0.25 to 24 hrs by LC-MS analysis; type: ADME, organism-based; details: time 0.25-24 hrs

Structure (SMILES): Cl.Cl.O.O=c1nc2n(c3c1CN(Cc1ccccc1)CC3)CCN2Cc1ccc(F)c(Br)c1
- clearance [1]: 35.7 mL/min/kg
- Activity [2]: Non-Toxic
- Activity [3]: Non-Toxic
- Activity [4]: 23.9%
- AUC(0-t) (in vivo [5]): 4270 ng·h/mL
- Cmax [6]: 2790 ng/mL
- inhibition in vivo at 5 mg/kg (HCT-116 [7]): 56%
- inhibition in vivo at 20 mg/kg (HCT-116 [8]): 69%
- inhibition in vivo at 10 mg/kg (HCT-116 [9]): 60%
- Cmax [10]: 4010 ng/mL
- Activity [11]: 27.7%
- half-life [12]: 1.03 h
- Activity [13]: Non-Toxic
- Activity [14]: 25%
- half-life [15]: 1.27 h
- Activity [16]: Non-Toxic
- Activity [17]: Non-Toxic
- MRT last [18]: 0.56 h
- AUC(0-t) (in vivo [19]): 2330 ng·h/mL
- MRT last [20]: 1.29 h
- Activity [21]: Non-Toxic
- Activity [22]: Non-Toxic
- Activity [23]: Non-Toxic
- Activity [24]: Non-Toxic
- Activity [25]: Non-Toxic
- bioavailability [26]: 61.1%
- Activity [27]: Non-Toxic
- Activity [28]: Non-Toxic
- Tmax [29]: 0.33 h
